# Assay results from ChEMBL document CHEMBL1153159, “Oxime derivatives related to AP18: Agonists and antagonists of the TRPA1 receptor” (Bioorg Med Chem Lett, 2010).
# Experiments:
# Format in all cases: functional, cell-based
# [1] = molecular target: T1, Transient receptor potential cation channel subfamily A member 1 (Homo sapiens, UniProt O75762); test: Agonist activity at human TRPA1 expressed in HEK293 cells assessed as [45]Ca2+ influx by microbeta plate count relative to cinnamaldehyde
# [2] = molecular target: T1, Transient receptor potential cation channel subfamily A member 1; test: Antagonist activity at human TRPA1 expressed in HEK293 cells assessed as [45]Ca2+ influx by microbeta plate count
# [3] = molecular target: T1, Transient receptor potential cation channel subfamily A member 1; test: Antagonist activity at human TRPA1 expressed in HEK293 cells assessed as inhibition of cinnamaldehyde-induced [45]Ca2+ influx by microbeta plate count
# [4] = molecular target: T1, Transient receptor potential cation channel subfamily A member 1; test: Agonist activity at human TRPA1 expressed in HEK293 cells assessed as [45]Ca2+ influx by microbeta plate count
# T1 sequence (O75762 whole entry): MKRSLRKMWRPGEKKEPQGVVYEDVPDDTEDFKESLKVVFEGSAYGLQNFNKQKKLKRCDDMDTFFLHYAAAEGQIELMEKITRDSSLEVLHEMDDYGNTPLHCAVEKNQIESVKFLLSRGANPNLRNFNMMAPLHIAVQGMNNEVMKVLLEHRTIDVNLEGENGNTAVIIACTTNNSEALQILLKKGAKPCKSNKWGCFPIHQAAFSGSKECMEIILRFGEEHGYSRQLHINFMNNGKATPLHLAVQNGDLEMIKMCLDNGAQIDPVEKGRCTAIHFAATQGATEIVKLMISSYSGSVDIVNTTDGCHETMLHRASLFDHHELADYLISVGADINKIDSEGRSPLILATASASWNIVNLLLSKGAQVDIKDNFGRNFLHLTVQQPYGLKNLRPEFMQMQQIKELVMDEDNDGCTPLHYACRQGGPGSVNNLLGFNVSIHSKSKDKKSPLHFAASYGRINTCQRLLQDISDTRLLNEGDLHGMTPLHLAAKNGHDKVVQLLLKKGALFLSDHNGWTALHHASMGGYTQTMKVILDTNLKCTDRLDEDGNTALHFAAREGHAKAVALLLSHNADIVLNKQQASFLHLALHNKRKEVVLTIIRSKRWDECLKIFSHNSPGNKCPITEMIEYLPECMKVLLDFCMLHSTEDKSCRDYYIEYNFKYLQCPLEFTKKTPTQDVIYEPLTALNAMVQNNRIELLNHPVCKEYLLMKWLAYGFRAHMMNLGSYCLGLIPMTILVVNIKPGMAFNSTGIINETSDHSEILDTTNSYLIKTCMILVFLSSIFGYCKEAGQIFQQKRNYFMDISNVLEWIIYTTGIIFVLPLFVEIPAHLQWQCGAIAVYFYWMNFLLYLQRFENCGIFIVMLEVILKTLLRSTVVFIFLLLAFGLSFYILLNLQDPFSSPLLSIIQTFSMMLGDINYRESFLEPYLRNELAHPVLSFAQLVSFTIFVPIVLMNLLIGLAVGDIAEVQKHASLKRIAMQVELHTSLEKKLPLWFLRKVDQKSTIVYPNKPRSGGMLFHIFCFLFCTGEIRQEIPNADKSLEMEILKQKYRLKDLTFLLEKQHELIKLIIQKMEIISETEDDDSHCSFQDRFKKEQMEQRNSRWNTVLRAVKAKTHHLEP
SMILES,Efficacy [1],IC50 [2] [µM],KB [3] [µM],EC50 [4] [µM]
CC(/C=C/c1ccc2c(c1)OCO2)=N\O,0.54,,,11.5
NC(/C=C/c1cc(C(F)(F)F)cc(C(F)(F)F)c1)=N\O,< 0.1,,,
O/N=C/C=C/c1ccc(Cl)cc1,0.46,,,
O=C/C=C/c1ccccc1 [CINNAMALDEHYDE],,,,51.4
CC(/C=C/c1ccc(Cl)cc1)=N\O,0.66,,,27.6
CN(C)c1ccc(/C=C/C=N/O)cc1,0.87,,,15.9
O/N=C\C=C\c1ccc(Cl)cc1,0.85,,,9.4
CC(/C=N/O)=C\c1ccc(C(C)(C)C)cc1,0.15,,,
O/N=C/C=C/c1ccc(C(F)(F)F)cc1,0.13,,,

# The remaining lines, values ahead:
Efficacy [1],IC50 [2] [µM],KB [3] [µM],EC50 [4] [µM],SMILES
0,2.7,1.91,,CC(=C\c1ccccc1)/C(C)=N/O
0,,,,CC(=C\c1ccccc1Cl)/C(C)=N/O
0.18,,,69.4,CC(/C=N/O)=C\c1ccccc1
0,2.8,1.26,,CC(=C\c1ccc(Cl)cc1)/C(C)=N/O [AP18 5]
0.23,,,46.1,COc1ccc(/C=C(C)/C(C)=N/O)cc1
0,,,,CC(=C\c1cccc([N+](=O)[O-])c1)/C(C)=N/O
0,,,,O/N=C/C=C/c1ccccc1
0.84,,,14.4,CC(=C\c1cccc(C)c1)/C(C)=N/O
0.27,,,96.6,CC(/C=C/c1ccccc1)=N\O
0.85,,,63.1,CC(/C=C/c1cccc(Cl)c1)=N\O
0.21,,,,CC(/C=C/c1cccc(Cl)c1)=N/O
